In assay [1] the test system is A. baumannii ATCC 19606. To be noted: for MIC at pH 5.0, A. baumannii ATCC 19606: ATCC 19606, pH 5; for MIC at pH 7.4, A. baumannii ATCC 19606: ATCC 19606, pH 7.4; for MIC at pH 8.0, A. baumannii ATCC 19606: ATCC 19606, pH 8.
Assay [2] has as its system K. pneumoniae NCTC 418. To be noted: for MIC at pH 5.0, K. pneumoniae NCTC 418: NCTC 418, pH 5; for MIC at pH 7.4, K. pneumoniae NCTC 418: NCTC 418, pH 7.4; for MIC at pH 8.0, K. pneumoniae NCTC 418: NCTC 418, pH 8.
Assay [3] concerns P. aeruginosa PAO1. To be noted: for MIC at pH 5.0, P. aeruginosa PAO1: PAO1, pH 5; for MIC at pH 7.4, P. aeruginosa PAO1: PAO1, pH 7.4; for MIC at pH 8.0, P. aeruginosa PAO1: PAO1, pH 8.
Assay [4] deals with HEK293 cell line. Type of assay: cell-based. To be noted: 48 h. How it is done:
HEK 293 cell line were cultured and maintained in DMEM (Dulbeccos modified Eagle
medium, Sigma Aldrich) supplemented with 10% FBS (Sigma Aldrich) and 1%
penicillin/streptomycin. Cells were incubated in a humidified incubator at 37°C in the presence
HEK 293 cell were seeded into 96 well plates at the density of 2 × 10^3 cells/well and incubated
in DMEM containing 10% FBS for 10-14 hours at 37°C in the presence of 5% CO2. The next
day, stock solution of compounds were prepared at concentration of 2 mg/mL in DMEM
containing 10% FBS. 1/2 or 1/3 serial dilution of the peptide dendrimers from 2 mg/mL or 200
µg/mL were performed in DMEM containing 10% FBS. The medium was removed from cell
culture and replaced with the compounds at different concentration after washing with PBS.
The cells were incubated in DMEM containing 10% FBS at 37°C in the presence of 5% CO 2.
Negative control was untreated cell culture without compounds and blank control was wells
without cell but only medium. After 48 hours, a final concentration of 10% AlamarBlue®
(Thermo Fisher Scientific, Reinach, CH) was added to each well . The cells were incubated for
3-5 hours at 37°C with 5% CO 2. The fluorescence was then measured on a Tecan Infinite
M1000 Pro plate reader at λex = 560 nm and λem = 590 nm. The value was normalized
according to the untreated cells.

Assay [5] concerns S aureus COL (methicillin-resistant Staphylococcus aureus). To be noted: for MIC at pH 5.0, S aureus COL: COL (methicillin-resistant, pH 5); for MIC at pH 7.4, S aureus COL: COL (methicillin-resistant, pH 7.4); for MIC at pH 8.0, S aureus COL: COL (methicillin-resistant, pH 8).
Assay [6] concerns E. coli W3110. To be noted: for MIC at pH 5.0, E. coli W3110: W3110, pH 5; for MIC at pH 7.4, E. coli W3110: W3110, pH 7.4; for MIC at pH 8.0, E. coli W3110: W3110, pH 8.

The text below walks through data of article PMC9780108, “An intrinsically disordered antimicrobial peptide dendrimer from stereorandomized virtual screening” (Cell Reports. Physical Science, 2022).

In brackets after ≈: the same amount, converted by molar mass. Positions of bridges follow the written chain, without caps; N, C: chain ends. Non-standard residues stand in square brackets, D forms with d. Residues, ends and D or L forms follow the SMILES beside them. Groups on a side chain read outwards from the residue. Chains are numbered I, II in the order given. *: point of attachment. X3 = CC(C)C[C@H](NC(=O)CCCCCN)C(=O)NCCCC[C@H](NC(=O)[C@H](CC(C)C)NC(=O)CCCCCN)C(=O)*; Ahx = NCCCCCC(=O)O

Regarding `CC(C)C[C@H](NC(=O)[C@H](CC(C)C)NC(=O)[C@H](CC(C)C)NC(=O)[C@H](CCCCNC(=O)[C@H](CC(C)C)NC(=O)[C@H](CC(C)C)NC(=O)[C@H](CCCCNC(=O)[C@H](CCCCN)NC(=O)[C@H](CC(C)C)NC(=O)[C@H](CCCCNC(=O)[C@H](CC(C)C)NC(=O)CCCCCN)NC(=O)[C@H](CC(C)C)NC(=O)CCCCCN)NC(=O)[C@H](CCCCN)NC(=O)[C@H](CC(C)C)NC(=O)[C@H](CCCCNC(=O)[C@H](CC(C)C)NC(=O)CCCCCN)NC(=O)[C@H](CC(C)C)NC(=O)CCCCCN)NC(=O)[C@H](CC(C)C)NC(=O)[C@H](CC(C)C)NC(=O)[C@H](CCCCNC(=O)[C@H](CCCCN)NC(=O)[C@H](CC(C)C)NC(=O)[C@H](CCCCNC(=O)[C@H](CC(C)C)NC(=O)CCCCCN)NC(=O)[C@H](CC(C)C)NC(=O)CCCCCN)NC(=O)[C@H](CCCCN)NC(=O)[C@H](CC(C)C)NC(=O)[C@H](CCCCNC(=O)[C@H](CC(C)C)NC(=O)CCCCCN)NC(=O)[C@H](CC(C)C)NC(=O)CCCCCN)C(N)=O` [L-aX18] (I: H-[Ahx]LK([Leu-Ahx])LKK([Lys-Leu-X3])LLKLLL-NH2 / II: H-[Ahx]LK([Leu-Ahx])LKK([Lys-Leu-X3])LL; amide I:9-II:C), in assay [1], the MIC (in general, the smallest concentration in the dilution series that meets the test's criterion for growth inhibition) at pH 5.0, A. baumannii ATCC 19606 is 32 μg/mL; the minimum inhibitory concentration (MIC) at pH 7.4, A. baumannii ATCC 19606 worked out at 64 μg/mL; the “MIC at pH 8.0, A. baumannii ATCC 19606” value was 32 μg/mL. Also, in assay [2], the “MIC at pH 5.0, K. pneumoniae NCTC 418” value is recorded as >64/>64/>64 μg/mL; the “MIC at pH 7.4, K. pneumoniae NCTC 418” value was >64/>64/>64 μg/mL; the “MIC at pH 8.0, K. pneumoniae NCTC 418” value is >64/>64/>64 μg/mL. Also, in assay [3], the “MIC at pH 5.0, P. aeruginosa PAO1” value is 64/>64/64 μg/mL; the “MIC at pH 7.4, P. aeruginosa PAO1” value is listed as 64/>64/64 μg/mL; the “MIC at pH 8.0, P. aeruginosa PAO1” value is 64/>64/64 μg/mL. For the same compound, the “IC50 HEK293” value in assay [4] is 14 ± 0.6 µg/mL (≈ 3.12 µM). In assay [5], the “MIC at pH 5.0, S aureus COL” value is greater than 64 μg/mL; the “MIC at pH 7.4, S aureus COL” value was greater than 64 μg/mL; the “MIC at pH 8.0, S aureus COL” value turned out to be 32 μg/mL. In assay [6], the “MIC at pH 5.0, E. coli W3110” value was found to be 32 μg/mL; the “MIC at pH 7.4, E. coli W3110” value is greater than 64 μg/mL; the “MIC at pH 8.0, E. coli W3110” value stood at 32 μg/mL.

As to `CC(C)C[C@H](NC(=O)CCCCCN)C(=O)NCCCC[C@H](NC(=O)[C@H](CC(C)C)NC(=O)CCCCCN)C(=O)N[C@@H](CC(C)C)C(=O)NCCCC[C@H](NC(=O)[C@H](CC(C)C)NC(=O)[C@H](CCCCNC(=O)[C@H](CC(C)C)NC(=O)CCCCCN)NC(=O)[C@H](CC(C)C)NC(=O)CCCCCN)C(=O)N[C@@H](CCCCN)C(=O)N[C@@H](CC(C)C)C(=O)N[C@@H](CC(C)C)C(=O)NCCCC[C@H](NC(=O)[C@H](CC(C)C)NC(=O)[C@H](CC(C)C)NC(=O)[C@H](CCCCN)NC(=O)[C@H](CCCCNC(=O)[C@H](CC(C)C)NC(=O)[C@H](CCCCNC(=O)[C@H](CC(C)C)NC(=O)CCCCCN)NC(=O)[C@H](CC(C)C)NC(=O)CCCCCN)NC(=O)[C@H](CC(C)C)NC(=O)[C@H](CCCCNC(=O)[C@H](CC(C)C)NC(=O)CCCCCN)NC(=O)[C@H](CC(C)C)NC(=O)CCCCCN)C(=O)N[C@@H](CC(C)C)C(=O)N[C@@H](CCCCN)C(=O)N[C@@H](CCCCN)C(N)=O` [L-aX22] (I: H-[Ahx]LK([Leu-Ahx])LK([Leu-X3])KLLKLKK-NH2 / II: H-[Ahx]LK([Leu-Ahx])LK([Leu-X3])KLL; amide I:9-II:C), in assay [1], the “MIC at pH 5.0, A. baumannii ATCC 19606” value is given as 2 μg/mL; the “MIC at pH 7.4, A. baumannii ATCC 19606” value worked out at 4 μg/mL; the “MIC at pH 8.0, A. baumannii ATCC 19606” value is 4 μg/mL. For the same compound, in assay [2], the minimal inhibitory concentration (MIC) at pH 5.0, K. pneumoniae NCTC 418 came to 64 μg/mL; the “MIC at pH 7.4, K. pneumoniae NCTC 418” value is reported as 8 μg/mL; the “MIC at pH 8.0, K. pneumoniae NCTC 418” value is given as 8 μg/mL. Also, in assay [3], the “MIC at pH 5.0, P. aeruginosa PAO1” value is listed as 16 μg/mL; the “MIC at pH 7.4, P. aeruginosa PAO1” value came out at 8 μg/mL; the “MIC at pH 8.0, P. aeruginosa PAO1” value turned out to be 16 μg/mL. For the same compound, the “IC50 HEK293” value in assay [4] came out at 24 ± 3 µg/mL (≈ 5.64 µM). Also, in assay [5], the “MIC at pH 5.0, S aureus COL” value is 64 μg/mL; the “MIC at pH 7.4, S aureus COL” value worked out at 16 μg/mL; the “MIC at pH 8.0, S aureus COL” value stood at 4 μg/mL. For the same compound, in assay [6], the “MIC at pH 5.0, E. coli W3110” value turned out to be 2 μg/mL; the minimum inhibitory concentration (MIC) at pH 7.4, E. coli W3110 worked out at 4 μg/mL; the “MIC at pH 8.0, E. coli W3110” value is listed as 4 μg/mL.
